The target of assay [1] is T1, full-length beta-Catenin (Uniprot ID P35222) (Homo sapiens, UniProt P35222).
T1 construct: 10 nM full-length beta-Catenin (Uniprot ID P35222)
T1 sequence (P35222 1-781): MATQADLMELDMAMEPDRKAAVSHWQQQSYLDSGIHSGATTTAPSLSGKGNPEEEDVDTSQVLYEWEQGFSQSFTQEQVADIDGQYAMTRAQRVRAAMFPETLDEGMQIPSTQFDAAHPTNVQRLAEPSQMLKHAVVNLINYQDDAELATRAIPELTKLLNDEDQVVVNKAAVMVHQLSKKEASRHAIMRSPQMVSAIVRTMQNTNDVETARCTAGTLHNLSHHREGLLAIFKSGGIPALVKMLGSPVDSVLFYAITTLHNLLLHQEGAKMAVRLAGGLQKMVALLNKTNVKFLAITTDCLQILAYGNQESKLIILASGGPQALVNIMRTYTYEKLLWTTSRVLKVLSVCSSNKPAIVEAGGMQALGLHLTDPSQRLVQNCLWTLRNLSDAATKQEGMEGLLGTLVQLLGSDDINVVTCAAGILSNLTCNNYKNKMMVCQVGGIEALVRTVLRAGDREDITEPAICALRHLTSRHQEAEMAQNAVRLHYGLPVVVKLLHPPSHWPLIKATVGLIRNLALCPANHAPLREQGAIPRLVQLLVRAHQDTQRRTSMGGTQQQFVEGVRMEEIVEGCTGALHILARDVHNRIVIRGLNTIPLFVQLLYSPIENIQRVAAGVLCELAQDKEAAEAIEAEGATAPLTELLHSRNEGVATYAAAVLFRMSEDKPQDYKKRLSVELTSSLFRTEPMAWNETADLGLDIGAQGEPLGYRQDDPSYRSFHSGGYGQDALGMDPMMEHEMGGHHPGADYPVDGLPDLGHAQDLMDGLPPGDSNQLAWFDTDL
As to the kind of experiment: Fluorescence polarization IC50 (beta-catenin / 5FAM-TCF4 10-53 competition). It counts as binding. The note with it: fluorescence polarization; read-out: beta-Catenin FP IC50. In general terms: Fluorescence polarisation rises when a labelled molecule tumbles more slowly, as on binding a larger partner.

The target in assay [2] is T2, beta-catenin/TCF4 engagement (Homo sapiens, UniProt P35222).
T2 construct: expressed in transfected cells; host or cells: HEK293
T2 sequence (P35222 1-781): T1 sequence (P35222 1-781)
As to the kind of experiment: Nano-BRET target engagement assay (B-cat-Halo & TCF4-Luc in HEK293 cells). It counts as cell-based. The note with it: absolute IC50; read-out: NanoBRET Abs IC50.

The IC50 is the concentration that gives 50% inhibition. With `CC(=O)N1CCC[C@]12CC=CCCCC1(CCCC=CCCCOC(=O)N3CC[C@@](C(=O)N[C@@H](Cc4ccccc4C(F)(F)F)C(=O)N[C@@H](Cc4ccc(Cl)c(Cl)c4)C(=O)N[C@@H](CO)C(N)=O)(C3)NC(=O)[C@H](CC(C)C)NC(=O)[C@H](Cc3ccccc3)NC(=O)[C@H](C)NC(=O)[C@H](C)NC(=O)[C@H](Cc3cccc(C(=O)O)c3)NC(=O)[C@H](CC(=O)O)NC1=O)NC(=O)[C@H](CC(C)(C)C)NC(=O)[C@H](CC(=O)O)NC2=O` (stereo partly drawn) [I-2218, Ac-PL3-Asp-Npg-B5-Asp-3COOHF-Ala-Ala-Phe-Leu-PyrS2-2F3MeF-34C1F-Ser-NH2], the 50% inhibitory concentration (IC50) in assay [1] was 34 nM; in assay [2] it was 5100 nM.

For `CC(=O)N1CCC[C@]12CC=CCCCC1(CCCC=CCCCOC(=O)N3CC[C@@](C(=O)N[C@@H](Cc4ccccc4C(F)(F)F)C(=O)N[C@@H](Cc4ccc(Cl)c(Cl)c4)C(=O)N[C@@H](C)C(N)=O)(C3)NC(=O)[C@H](CC(C)C)NC(=O)[C@H](Cc3ccccc3)NC(=O)[C@H](C)NC(=O)[C@H](CCC(N)=O)NC(=O)[C@H](Cc3cccc(C(=O)O)c3)NC(=O)[C@H](CC(=O)O)NC1=O)NC(=O)[C@H](CC(C)(C)C)NC(=O)[C@H](CC(=O)O)NC2=O` (stereo partly drawn) [I-2219, Ac-PL3-Asp-Npg-B5-Asp-3COOHF-Gln-Ala-Phe-Leu-PyrS2-2F3MeF-34C1F-Ala-NH2], the concentration for half-maximal inhibition (IC50) in assay [1] came out at 21 nM; in assay [2], 2700 nM.

Consider `CC(=O)N1CCC[C@]12CC=CCCCC1(CCCC=CCCCOC(=O)N3CC[C@@](C(=O)N[C@@H](Cc4ccsc4)C(=O)N[C@@H](Cc4ccc(Cl)cc4)C(=O)N[C@@H](CCC(N)=O)C(N)=O)(C3)NC(=O)[C@H](CC(C)C)NC(=O)[C@H](Cc3ccccc3)NC(=O)[C@H](C)NC(=O)[C@H](C)NC(=O)[C@H](Cc3cccc(C(=O)O)c3)NC(=O)[C@H](CC(=O)O)NC1=O)NC(=O)[C@H](CC(C)(C)C)NC(=O)[C@H](CC(=O)O)NC2=O` (stereo partly drawn) [I-2220, Ac-PL3-Asp-Npg-B5-Asp-3COOHF-Ala-Ala-Phe-Leu-PyrS2-3Thi-4C1F-Gln-NH2], for which the concentration for half-maximal inhibition (IC50) in assay [1] was 12 nM; in assay [2], 16300 nM.

`CC(=O)N1CCC[C@]12CC=CCCCC1(CCCC=CCCCOC(=O)N3CC[C@@](C(=O)N[C@@H](Cc4ccsc4)C(=O)N[C@@H](Cc4ccc(Cl)cc4)C(=O)N[C@@H](C)C(N)=O)(C3)NC(=O)[C@H](C(C)C)NC(=O)[C@H](Cc3ccccc3)NC(=O)[C@H](C)NC(=O)[C@H](CCC(N)=O)NC(=O)[C@H](Cc3cccc(C(=O)O)c3)NC(=O)[C@H](CC(=O)O)NC1=O)NC(=O)[C@H](CC(C)(C)C)NC(=O)[C@H](CC(=O)O)NC2=O` (stereo partly drawn) [I-2221, Ac-PL3-Asp-Npg-B5-Asp-3COOHF-Gln-Ala-Phe-Val-PyrS2-3Thi-4C1F-Ala-NH2]: the IC50 was 11 nM in assay [1] and 5000 nM in assay [2].

For `CC(=O)N1CCC[C@]12CC=CCCCC1(CCCC=CCCCOC(=O)N3CC[C@@](C(=O)N[C@@H](Cc4ccccc4C(F)(F)F)C(=O)N[C@@H](Cc4ccc(Cl)cc4)C(=O)N[C@@H](CO)C(N)=O)(C3)NC(=O)[C@H](CC(C)C)NC(=O)[C@H](Cc3ccccc3)NC(=O)[C@H](C)NC(=O)[C@H](C)NC(=O)[C@H](Cc3cccc(C(=O)O)c3)NC(=O)[C@H](CC(=O)O)NC1=O)NC(=O)[C@H](CC(C)(C)C)NC(=O)[C@H](CC(=O)O)NC2=O` (stereo partly drawn) [I-2222, Ac-PL3-Asp-Npg-B5-Asp-3COOHF-Ala-Ala-Phe-Leu-PyrS2-2F3MeF-4C1F-Ser-NH2], the figures for the concentration for half-maximal inhibition (IC50) in assay [1] and in assay [2] were 84 nM and 11700 nM, respectively.

Take `CC(=O)N1CCC[C@]12CC=CCCCC1(CCCC=CCCCOC(=O)N3CC[C@@](C(=O)N[C@@H](Cc4ccccc4C(F)(F)F)C(=O)N[C@@H](Cc4ccc(Cl)cc4)C(=O)N[C@@H](C)C(N)=O)(C3)NC(=O)[C@H](CC(C)C)NC(=O)[C@H](Cc3ccccc3)NC(=O)[C@H](C)NC(=O)[C@H](CCC(N)=O)NC(=O)[C@H](Cc3cccc(C(=O)O)c3)NC(=O)[C@H](CC(=O)O)NC1=O)NC(=O)[C@H](CC(C)(C)C)NC(=O)[C@H](CC(=O)O)NC2=O` (stereo partly drawn) [I-2223, Ac-PL3-Asp-Npg-B5-Asp-3COOHF-Gln-Ala-Phe-Leu-PyrS2-2F3MeF-4C1F-Ala-NH2]: the results for the IC50 in assay [1] and in assay [2] were 50 nM and 9000 nM, respectively.

For `CC(=O)N1CCC[C@]12CC=CCCCC1(CCCC=CCCCOC(=O)N3CC[C@@](C(=O)N[C@@H](Cc4ccsc4)C(=O)N[C@@H](Cc4cccc(Cl)c4)C(=O)N[C@@H](CCC(N)=O)C(N)=O)(C3)NC(=O)[C@H](CC(C)C)NC(=O)[C@H](Cc3ccccc3)NC(=O)[C@H](C)NC(=O)[C@H](C)NC(=O)[C@H](Cc3cccc(C(=O)O)c3)NC(=O)[C@H](CC(=O)O)NC1=O)NC(=O)[C@H](CC(C)(C)C)NC(=O)[C@H](CC(=O)O)NC2=O` (stereo partly drawn) [I-2224, Ac-PL3-Asp-Npg-B5-Asp-3COOHF-Ala-Ala-Phe-Leu-PyrS2-3Thi-3C1F-Gln-NH2], the concentration for half-maximal inhibition (IC50) in assay [1] turned out to be 14 nM; in assay [2], 14200 nM.

For `CC(=O)N1CCC[C@]12CC=CCCCC1(CCCC=CCCCOC(=O)N3CC[C@@](C(=O)N[C@@H](Cc4ccsc4)C(=O)N[C@@H](Cc4cccc(Cl)c4)C(=O)N[C@@H](C)C(N)=O)(C3)NC(=O)[C@H](C(C)C)NC(=O)[C@H](Cc3ccccc3)NC(=O)[C@H](C)NC(=O)[C@H](CCC(N)=O)NC(=O)[C@H](Cc3cccc(C(=O)O)c3)NC(=O)[C@H](CC(=O)O)NC1=O)NC(=O)[C@H](CC(C)(C)C)NC(=O)[C@H](CC(=O)O)NC2=O` (stereo partly drawn) [I-2225, Ac-PL3-Asp-Npg-B5-Asp-3COOHF-Gln-Ala-Phe-Val-PyrS2-3Thi-3C1F-Ala-NH2], the IC50 in assay [1] was found to be 13 nM; in assay [2], 7800 nM.

Consider `CC(=O)N1CCC[C@]12CC=CCCCC1(CCCC=CCCCOC(=O)N3CC[C@@](C(=O)N[C@@H](Cc4ccccc4C(F)(F)F)C(=O)N[C@@H](Cc4cccc(Cl)c4)C(=O)N[C@@H](CO)C(N)=O)(C3)NC(=O)[C@H](CC(C)C)NC(=O)[C@H](Cc3ccccc3)NC(=O)[C@H](C)NC(=O)[C@H](C)NC(=O)[C@H](Cc3cccc(C(=O)O)c3)NC(=O)[C@H](CC(=O)O)NC1=O)NC(=O)[C@H](CC(C)(C)C)NC(=O)[C@H](CC(=O)O)NC2=O` (stereo partly drawn) [I-2226, Ac-PL3-Asp-Npg-B5-Asp-3COOHF-Ala-Ala-Phe-Leu-PyrS2-2F3MeF-3C1F-Ser-NH2], for which the IC50 in assay [1] came out at 97 nM; in assay [2], 10600 nM.

For `CC(=O)N1CCC[C@]12CC=CCCCC1(CCCC=CCCCOC(=O)N3CC[C@@](C(=O)N[C@@H](Cc4ccccc4C(F)(F)F)C(=O)N[C@@H](Cc4cccc(Cl)c4)C(=O)N[C@@H](C)C(N)=O)(C3)NC(=O)[C@H](CC(C)C)NC(=O)[C@H](Cc3ccccc3)NC(=O)[C@H](C)NC(=O)[C@H](CCC(N)=O)NC(=O)[C@H](Cc3cccc(C(=O)O)c3)NC(=O)[C@H](CC(=O)O)NC1=O)NC(=O)[C@H](CC(C)(C)C)NC(=O)[C@H](CC(=O)O)NC2=O` (stereo partly drawn) [I-2227, Ac-PL3-Asp-Npg-B5-Asp-3COOHF-Gln-Ala-Phe-Leu-PyrS2-2F3MeF-3C1F-Ala-NH2], the concentration for half-maximal inhibition (IC50) in assay [1] came out at 47 nM; in assay [2], 6300 nM.

On to `CC(=O)N1CCC[C@]12CC=CCCCC1(CCCC=CCCCOC(=O)N3CC[C@@](C(=O)N[C@@H](Cc4ccsc4)C(=O)N[C@@H](Cc4csc5ccccc45)C(=O)N[C@@H](CCC(N)=O)C(N)=O)(C3)NC(=O)[C@H](CC(C)C)NC(=O)[C@H](Cc3ccccc3)NC(=O)[C@H](C)NC(=O)[C@H](C)NC(=O)[C@H](CN(CC(=O)O)C(=O)CCCN(C)C)NC(=O)[C@H](CC(=O)O)NC1=O)NC(=O)[C@H](CC(C)(C)C)NC(=O)[C@H](CC(=O)O)NC2=O` (stereo partly drawn) [I-2233, Ac-PL3-Asp-Npg-B5-Asp-[NdiMeButC]GA-Ala-Ala-Phe-Leu-PyrS2-3Thi-BztA-Gln-NH2], for which the figures for the IC50 in assay [1] and in assay [2] were 14 nM and more than 20000 nM, respectively.

The values above are taken from US20240116985A1, “STAPLED PEPTIDES AND METHODS THEREOF” (priority 2020, published 2024).
